From patent publication US8507507B2, “Modulators of toll-like receptors” (Gilead Sciences, Inc., priority 2009, dated 2013)

System: human Peripheral Blood Mononuclear Cell (PMBC)
Test: PBMC assay: cytokine (IFN-α) stimulation at 24 hours
Type: cell-based
Conditions: Homo sapiens, PBMC, 24 h, IFN-α in supernatant (Luminex), three fold above background, read-out: MEC = minimum concentration for induction of IFN-alpha = 3-fold over background
Experimental: Assays were conducted to determine cytokine stimulation at 24 hours from human Peripheral Blood Mononuclear Cell (PMBC) using the compounds of the present invention. The assays were run in duplicate, with 8-point, half-log dilution curves. The compounds of the present invention were diluted from 10 mM DMSO solution. Cell supernatants are assayed directly for IFNα and 1:10 dilution for TNFα. The assays were performed in a similar fashion as described in Bioorg. Med. Chem. Lett. 16, 4559, (2006). Specifically, cryo-preserved PBMCs were thawed and seeded 96 well plates with 750,000 cells/well in 190 μL/well cell media. The PBMCs were then incubated for 1 hour at 37° C. at 5% CO2. Then, the compounds of the present invention were added in 10 μL cell media at 8 point, half-log dilution titration. The plates were incubated at 37° C. and 5% CO2 for 24 hours and then spinned at 1200 rpm for 10 min, which was followed by collecting supernatant and storing the same at −80° C. Cytokine secretion was assayed with Luminex® (brand of Multiplexing bead-based platform, Luminx® Corporation Austin Tex. USA) and Upstate Biosciences® (Upstate Biosciences®, Charlottesville, Va., USA) multi-plex kits, using a Luminex® analysis instrument. IFN MEC value for a compound was the minimum concentration at which IFN-α production stimulated by the compound reached three fold above background, as determined using the assay method above.

Q: How did the minimal effective concentration turn out when COCCOc1nc(N)c2[nH]c(=O)n(Cc3cc(-c4cccc(CN5CCCC5)c4)ccc3Cl)c2n1 [AA] was run?
A: 0.1 to 1 µM

Q: Which minimal effective concentration does the source give for COCCOc1nc(N)c2[nH]c(=O)n(Cc3cc(-c4ccc(CN5CCCC5)cc4)ccc3Cl)c2n1 [AB] here?
A: 0.1 to 1 µM

Q: COCCOc1nc(N)c2[nH]c(=O)n(Cc3ccc(-c4ccc(CN5CCCC5)cn4)cc3)c2n1 [AC] was tested. Which minimal effective concentration did it give?
A: 0.001 µM

Q: Which minimal effective concentration does the source give for COCCOc1nc(N)c2[nH]c(=O)n(Cc3ccc(-c4ccc(CN5CCCC5)nc4)cc3)c2n1 [AD] here?
A: 0.001 µM

Q: Which minimal effective concentration does the source give for CCN1CCc2ncc(-c3ccc(Cn4c(=O)[nH]c5c(N)nc(OCCOC)nc54)cc3)cc2C1 [AE] here?
A: 0.001 µM

Q: COCCOc1nc(N)c2[nH]c(=O)n(Cc3ccc(-c4ccc(CN5CCCC5)cc4)nc3)c2n1 [AF] was tested. Which minimal effective concentration did it give?
A: 0.001 µM

Q: COCCOc1nc(N)c2[nH]c(=O)n(Cc3ccc(-c4cccc(CN5CCCC5)c4)nc3)c2n1 [AG] was tested. Which minimal effective concentration did it give?
A: 0.001 µM

Q: COCCOc1nc(N)c2[nH]c(=O)n(Cc3ccc(-c4ccc(CN5CCCC5)cc4)cc3Cl)c2n1 [AH] was tested. Which minimal effective concentration did it give?
A: 0.001 µM

Q: COCCOc1nc(N)c2[nH]c(=O)n(Cc3ccc(-c4ccc(CN5CCCC5)cc4)c(Cl)c3)c2n1 [AI] was tested. Which minimal effective concentration did it give?
A: 0.001 µM

Q: For COCCOc1nc(N)c2[nH]c(=O)n(Cc3ccc(-c4ccc(CN5CCCC5)cc4)cc3F)c2n1 [AJ], which minimal effective concentration is on record?
A: 0.001 µM

Q: Which minimal effective concentration does the source give for COCCOc1nc(N)c2[nH]c(=O)n(Cc3ccc(-c4ccc(CN5CCCC5)cc4)cc3C#N)c2n1 [AK] here?
A: 0.001 µM

Q: For COCCOc1nc(N)c2[nH]c(=O)n(Cc3ccc(-c4ccc(CN5CCCC5)cc4)c(F)c3)c2n1 [AL], which minimal effective concentration is on record?
A: 0.001 µM

Q: Which minimal effective concentration does the source give for COCCOc1nc(N)c2[nH]c(=O)n(Cc3ccc(-c4cc(CN5CCCC5)cc(C(F)(F)F)c4)cc3)c2n1 [AM] here?
A: 0.01 to 0.099 µM

Q: Which minimal effective concentration does the source give for COCCOc1nc(N)c2[nH]c(=O)n(Cc3ccc(-c4ccc(CN5CCCC5)cc4)c(C(F)(F)F)c3)c2n1 [AN] here?
A: 0.001 µM

Q: Which minimal effective concentration does the source give for COCCOc1nc(N)c2[nH]c(=O)n(Cc3ccc(-c4cccc(CN5CCCC5)c4)c(C(F)(F)F)c3)c2n1 [AO] here?
A: 0.001 µM

Q: COCCOc1nc(N)c2[nH]c(=O)n(Cc3ccc(-c4ccc(CCCN5CCCC5)nc4)cc3)c2n1 [AP] was tested. Which minimal effective concentration did it give?
A: 0.001 µM

Q: For Nc1nc(OCC2CCOCC2)nc2c1[nH]c(=O)n2Cc1ccc(-c2cccc(CN3CCCC3)c2)cc1 [AQ], which minimal effective concentration is on record?
A: 0.001 µM

Q: With Nc1nc(OCC2CCOCC2)nc2c1[nH]c(=O)n2Cc1ccc(-c2ccc(CN3CCCC3)cc2)cc1 [AR] as the compound, how does the minimal effective concentration read?
A: 0.001 µM

Q: Which minimal effective concentration does the source give for Nc1nc(OCC2CCOCC2)nc2c1[nH]c(=O)n2Cc1ccc(-c2ccc(CN3CCCC3)cc2)c(C(F)(F)F)c1 [AS] here?
A: 0.001 µM

Q: Nc1nc(OCC2CCOCC2)nc2c1[nH]c(=O)n2Cc1ccc(-c2cccc(CN3CCCC3)c2)c(C(F)(F)F)c1 [AT] was tested. Which minimal effective concentration did it give?
A: 0.001 µM

Q: With Nc1nc(OCC2CCOCC2)nc2c1[nH]c(=O)n2Cc1ccc(-c2ccc(CN3CCCC3)nc2)cc1 [AU] as the compound, how does the minimal effective concentration read?
A: 0.001 µM

Q: Which minimal effective concentration does the source give for Nc1nc(OCC2CCOCC2)nc2c1[nH]c(=O)n2Cc1ccc(-c2ccc(CN3CCCC3)cn2)cc1 [AV] here?
A: 0.001 µM

Q: Which minimal effective concentration does the source give for COCCOc1nc(N)c2[nH]c(=O)n(Cc3ccc(-c4ccc(CN5CCCC5)cc4)cc3)c2c1Cl [AY] here?
A: 0.01 to 0.099 µM

Q: Which minimal effective concentration does the source give for Nc1nc(OCC2CCOCC2)cc2c1[nH]c(=O)n2Cc1ccc(-c2ccc(CN3CCCC3)cc2)cc1 [AZ] here?
A: 0.001 µM

Q: Which minimal effective concentration does the source give for CCCCOc1nc(N)c2[nH]c(=O)n(Cc3cccc(-c4ccccc4CN4CCCC4)c3)c2n1 [A] here?
A: 0.1 to 1 µM

Q: For Nc1nc(OCC2CCOCC2)cc2c1[nH]c(=O)n2Cc1ccc(-c2ccc(CN3CCCC3)nc2)cc1 [BA], which minimal effective concentration is on record?
A: 0.001 µM

Q: Nc1nc(OCC2CCOCC2)cc2c1[nH]c(=O)n2Cc1ccc(-c2csc(CN3CCCC3)n2)cc1 [BB] was tested. Which minimal effective concentration did it give?
A: 0.001 to 0.009 µM

Q: Which minimal effective concentration does the source give for CCCCOc1cc2c([nH]c(=O)n2Cc2ccc(-c3ccc(CN4CCCC4)cc3)cc2)c(N)n1 [BC] here?
A: 0.001 µM

Q: How did the minimal effective concentration turn out when Nc1nc(OCC2CCOCC2)cc2c1[nH]c(=O)n2Cc1ccc(-c2cccc(CN3CCCC3)c2)nc1 [BD] was run?
A: 0.001 µM

Q: How did the minimal effective concentration turn out when Nc1nc(OCC2CCOCC2)cc2c1[nH]c(=O)n2Cc1ccc(-c2ccc(CN3CCCC3)cc2)nc1 [BE] was run?
A: 0.001 µM

Q: For CCCCOc1cc2c([nH]c(=O)n2Cc2ccc(-c3cccc(CN4CCCC4)c3)nc2)c(N)n1 [BF], which minimal effective concentration is on record?
A: 0.001 µM

Q: With CCCCOc1cc2c([nH]c(=O)n2Cc2ccc(-c3ccc(CN4CCCC4)cc3)nc2)c(N)n1 [BG] as the compound, how does the minimal effective concentration read?
A: 0.001 µM

Q: CCCCOc1nc(N)c2[nH]c(=O)n(Cc3cccc(-c4cccc(CN5CCCC5)c4)c3)c2n1 [B] was tested. Which minimal effective concentration did it give?
A: 0.01 to 0.099 µM

Q: With CCCCOc1nc(N)c2[nH]c(=O)n(Cc3cccc(-c4ccc(CN5CCCC5)cc4)c3)c2n1 [C] as the compound, how does the minimal effective concentration read?
A: 0.001 to 0.009 µM

Q: How did the minimal effective concentration turn out when CCCCOc1nc(N)c2[nH]c(=O)n(Cc3ccc(-c4ccccc4CN4CCCC4)cc3)c2n1 [D] was run?
A: 0.001 µM

Q: For CCCCOc1nc(N)c2[nH]c(=O)n(Cc3ccc(-c4cccc(CN5CCCC5)c4)cc3)c2n1 [E], which minimal effective concentration is on record?
A: 0.001 µM

Q: CCCCOc1nc(N)c2[nH]c(=O)n(Cc3cnc(-c4ccc(CN5CCCC5)cc4)s3)c2n1 [Example M] was tested. Which minimal effective concentration did it give?
A: 0.001 µM

Q: How did the minimal effective concentration turn out when CCCCOc1nc(N)c2[nH]c(=O)n(Cc3ccc(-c4ccc(CN5CCCC5)cc4)cc3)c2n1 [F] was run?
A: 0.001 µM

Q: CCCCOc1nc(N)c2[nH]c(=O)n(Cc3ccc(-c4cccc(CN5CCCC5)c4)nc3)c2n1 [G] was tested. Which minimal effective concentration did it give?
A: 0.001 µM

Q: CCCCOc1nc(N)c2[nH]c(=O)n(Cc3ccc(-c4ccc(CN5CCCC5)cc4)nc3)c2n1 [H] was tested. Which minimal effective concentration did it give?
A: 0.001 µM

Q: With CCCCOc1nc(N)c2[nH]c(=O)n(Cc3ccnc(-c4ccc(CN5CCCC5)cc4)c3)c2n1 [I] as the compound, how does the minimal effective concentration read?
A: 0.001 µM

Q: For CCCCOc1nc(N)c2[nH]c(=O)n(Cc3ccc(-c4ccc(CN5CCCC5)cc4)cn3)c2n1 [J], which minimal effective concentration is on record?
A: 0.001 µM

Q: CCCCOc1nc(N)c2[nH]c(=O)n(Cc3ccc(-c4cccc(CN5CCCC5)c4)cn3)c2n1 [K] was tested. Which minimal effective concentration did it give?
A: 0.001 µM

Q: For CCCCOc1nc(N)c2[nH]c(=O)n(Cc3cnc(-c4cccc(CN5CCCC5)c4)s3)c2n1 [L], which minimal effective concentration is on record?
A: 0.001 µM

Q: For CCCCOc1nc(N)c2[nH]c(=O)n(Cc3ccc(-c4ccc(CN5CCCC5)nc4)cc3)c2n1 [N], which minimal effective concentration is on record?
A: 0.001 µM

Q: Which minimal effective concentration does the source give for CCCCOc1nc(N)c2[nH]c(=O)n(Cc3ccc(-c4ccc(CN5CCCC5)cn4)cc3)c2n1 [O] here?
A: 0.001 µM

Q: For CCCCOc1nc(N)c2[nH]c(=O)n(Cc3ccc(-c4nc(CN5CCCC5)cs4)cc3)c2n1 [P], which minimal effective concentration is on record?
A: 0.001 µM

Q: How did the minimal effective concentration turn out when CCCCOc1nc(N)c2[nH]c(=O)n(Cc3ccc(-c4ncc(CN5CCCC5)s4)cc3)c2n1 [Q] was run?
A: 0.001 µM

Q: For CCCCOc1nc(N)c2[nH]c(=O)n(Cc3ccc(-c4cc(CN5CCCC5)ccc4OC)cc3)c2n1 [R], which minimal effective concentration is on record?
A: 0.001 µM

Q: For CCCCOc1nc(N)c2[nH]c(=O)n(Cc3ccc(-c4ccc(CN5CCCC5)c(F)c4)cc3)c2n1 [S], which minimal effective concentration is on record?
A: 0.001 µM

Q: For COCCOc1nc(N)c2[nH]c(=O)n(Cc3ccc(-c4cccc(CN5CCCC5)c4)cc3)c2n1 [T], which minimal effective concentration is on record?
A: 0.001 µM

Q: COCCOc1nc(N)c2[nH]c(=O)n(Cc3ccc(-c4ccc(CN5CCCC5)cc4)cc3)c2n1 [U] was tested. Which minimal effective concentration did it give?
A: 0.001 µM

Q: For COCCOc1nc(N)c2[nH]c(=O)n(Cc3ccc(-c4ccc(C(C)N5CCCC5)cc4)cc3)c2n1 (centres unmarked) [V], which minimal effective concentration is on record?
A: 0.001 µM

Q: How did the minimal effective concentration turn out when COCCOc1nc(N)c2[nH]c(=O)n(Cc3ccc(-c4cccc(CN5CCCCC5)c4)cc3)c2n1 [W] was run?
A: 0.001 µM

Q: COCCOc1nc(N)c2[nH]c(=O)n(Cc3ccc(-c4ccc(CN5CCOCC5)cc4)cc3)c2n1 [X] was tested. Which minimal effective concentration did it give?
A: 0.001 µM

Q: COCCOc1nc(N)c2[nH]c(=O)n(Cc3ccc(-c4cccc(CN5CCOCC5)c4)cc3)c2n1 [Y] was tested. Which minimal effective concentration did it give?
A: 0.001 to 0.009 µM

Q: Which minimal effective concentration does the source give for COCCOc1nc(N)c2[nH]c(=O)n(Cc3ccc(-c4cccc(CN5CCN(C)CC5)c4)cc3)c2n1 [Z] here?
A: 0.001 µM

Same assay, conditions: IFN-α in supernatant (Luminex), three fold above background

Q: Which “MEC = minimum concentration for induction of IFN-alpha = 3-fold over background” value does the source give for COCCOc1nc(N)c2[nH]c(=O)n(Cc3ccc(-c4ccc(CN5CCCC5)cc4)cc3)c2n1 [AX] here?
A: b (b: 1 nM-9 nM)

Same assay, conditions: IFN-α in supernatant (Luminex), three fold above background, read-out: MEC = minimum concentration for induction of IFN-alpha = 3-fold over background

Q: For COCCOc1cc2c([nH]c(=O)n2Cc2ccc(-c3cccc(CN4CCCC4)c3)cc2)c(N)n1 [AW], which minimal effective concentration is on record?
A: 0.001 to 0.009 µM
